Assay results as given in US11931404B2, “Use of ultrarapid acting insulin” (MannKind Corporation, priority 2014, dated 2024).

Columns and labels:
[1] = tested on: subjects with type 1 diabetes; test: 52-week randomized controlled clinical trial, basal insulin + prandial TI Inhalation Powder versus basal insulin + SC insulin aspart; format: in vivo, human; settings: with basal insulin glargine
From the text: This was a prospective, multi-country, multicenter, open label, randomized, controlled clinical trial comparing glycemic control in subjects with type 1 diabetes receiving basal insulin and prandial insulin-FDKP (TI) Inhalation Powder (TI Inhalation Powder group) with subjects receiving basal insulin and SC rapid-acting insulin aspart (comparator group). This study included a 52-week treatment phase and a 4-week follow- up phase. During the 4-week follow-up phase, pulmonary function and select clinical laboratory assessments were scheduled.
The study began with enrollment at Week−3. Subjects received a complete battery of safety and eligibility assessments, including HbA1c and fasting plasma glucose (FPG).
At Week−1, subjects were randomized to one of the following 2 treatments: Basal insulin+prandial TI Inhalation Powder Basal insulin+prandial SC rapid-acting insulin
At Week-1, subjects again completed the first three components of the Insulin Treatment Questionnaire (ITQ) for the purpose of assessing test-retest reliability only). After completing the questionnaire, subjects randomized to the TI Inhalation Powder group were trained on the MEDTONE® Inhaler using TECHNOSPHERE®/insulin (insulin-FDKP) inhalation powder; subjects in the comparator group were trained in the use of the NOVOLOG® pens; all subjects were trained in administration of LANTUS®. Additionally, all subjects were trained on a blood glucose monitoring (HBGM) meter provided at the beginning of the trial and diary and received diabetes education. Any training was repeated at Week 0, if needed.
At the beginning of the treatment phase, subjects had several titration/dose evaluation visits to adjust insulin therapy. Titration visits occurred once a week for the first 4 weeks. During Weeks 4 through 10, there were three telephone “visits” (at Week 6, Week 8, and Week 10) to titrate dose, if necessary. However, dose titration was allowed throughout the trial.
All subjects completed a 7-point blood glucose profile on any 3 days during the week immediately preceding each visit from Week 0 to Week 52. The 7 time points included samples from before breakfast and 2 hours after breakfast, before the mid-day meal and 2 hours after the mid-day meal, before the evening meal and 2 hours after the evening meal and at bedtime (7 time points a day, over 3 days). These blood glucose (BG) values were recorded in the HBGM diary that was collected at clinic visits. […]
A meal challenge test was performed at Week 4 (during dose titration), Week 26, and Week 52. […] Blood glucose (BG) was also measured using HBGM glucose meters to aid the Investigator in treatment decisions and values were obtained at −30, 0, 60, and 120 minutes during the meal challenge. […]

[2] = manufacturer's prescribing information (Mar. 2007 revision); cited from earlier work
[3] = tested on: subjects with type 2 diabetes; test: Meal challenge test, Amendment 1 (A1): blood glucose, endogenous glucose production, glucose disappearance; format: in vivo, human; settings: 60 U and 90 U insulin-FDKP groups, 10 U lispro, FIG. 11
Experimental: Following the completion of the meal challenge, the data was analyzed as per the statistical analysis plan. […] The study was amended (A1) and included 12 subjects (10 were reenrolled from the first meal challenge), and only two treatments, which were 10 U lispro and 60 and 90 U TI. The doses were selected based on the relative bioavailability observed following the first meal challenge (OP), where under an assumption of linear kinetics, 10 U lispro and 60 U TI would result in similar exposure. The 90 U dose group was included to assess the effect of the highest dose group of TI studied in Phase 3 trials. Six of the 12 subjects received 60 U TI and the other 6 subjects received 90 U TI. All 12 subjects received 10 U lispro in a crossover fashion. Methods and results below are described in terms of the Original Protocol (OP), which includes the meal challenge in 18 subjects with three treatments (EXUBERA®, lispro and TI) and Amendment 1 (A1), which includes 12 subjects treated with only TI and lispro. […] The subjects were screened and evaluated before, during and after the experiments and their data analyzed as described below. […] Blood glucose concentrations were measured at regular intervals from arterialized venous blood samples. […]

[4] = human, in vivo
Experimental: The insulin-FDKP formulation is administered to the subjects by oral inhalation using a MEDTONE® dry powder inhaler (MannKind Corp.). Following the completion of the meal challenge, the data was analyzed as per the statistical analysis plan. […] The study was amended (A1) and included 12 subjects (10 were reenrolled from the first meal challenge), and only two treatments, which were 10 U lispro and 60 and 90 U TI. The doses were selected based on the relative bioavailability observed following the first meal challenge (OP), where under an assumption of linear kinetics, 10 U lispro and 60 U TI would result in similar exposure. The 90 U dose group was included to assess the effect of the highest dose group of TI studied in Phase 3 trials. Six of the 12 subjects received 60 U TI and the other 6 subjects received 90 U TI. All 12 subjects received 10 U lispro in a crossover fashion. Methods and results below are described in terms of the Original Protocol (OP), which includes the meal challenge in 18 subjects with three treatments (EXUBERA®, lispro and TI) and Amendment 1 (A1), which includes 12 subjects treated with only TI and lispro. […] The subjects were screened and evaluated before, during and after the experiments and their data analyzed as described below. […]

[5] = tested on: subjects with type 2 diabetes; test: Meal challenge test, Original Protocol (OP): blood glucose, endogenous glucose production, glucose disappearance; format: in vivo, human; settings: 45 U insulin-FDKP, 12 U sc lispro, 4 mg EXUBERA, FIG. 6
Experimental: The insulin-FDKP formulation is administered to the subjects by oral inhalation using a MEDTONE® dry powder inhaler (MannKind Corp.). Methods and results below are described in terms of the Original Protocol (OP), which includes the meal challenge in 18 subjects with three treatments (EXUBERA®, lispro and TI) and Amendment 1 (A1), which includes 12 subjects treated with only TI and lispro. […] The subjects were screened and evaluated before, during and after the experiments and their data analyzed as described below. Subjects were selected based on several key inclusion criteria, including, male and female, having ≥18 and ≤70 years of age with clinical diagnosis of type 2 diabetes mellitus for 12 months. […] Blood glucose concentrations were measured at regular intervals from arterialized venous blood samples. […] EGP was determined by measurement of 6,6-^2H2 glucose applying the modified calculations for the non-steady state ([…], and D. T. Stein. Calculating glucose fluxes during meal tolerance test: a new computational approach. Am.J.Physiol Endocrinol.Metab 293 (2):[…]-[…], 2007). C-peptide concentrations were measured pre- and post-dose to assess endogenous insulin secretion. In addition, glucagon and free fatty acid concentrations were also determined.

## insulin aspart
[1]; 52 weeks
  mean FPG at the end of the treatment period: 161.3 (SD 68.2) mg/dL
[1]
  average body weight gain over the 52-week treatment period: 1.4 kg
[1]; baseline 8.41 (SD 0.92) TI arm, 8.48 (SD 0.97) insulin aspart arm
  HbA1c at Week 14: 8.07 (SD 1.09) %
[1]; baseline 187.6 (SD 85.1) TI group, 180.8 (SD 86.9) comparator group
  mean decrease in fasting plasma glucose (FPG) over the 52-week treatment period: 23.4 (SD 103.1) mg/dL

## insulin glargine
[2]
  period of relatively constant glucose lowering activity: 24 h

## insulin lispro
[3]
  time at which glucose disappearance rate peaked after dosing: about 100 minutes
[4]
  median tmax of insulin concentrations: 1.25 h
[5]
  time at which glucose disappearance rate peaked after dosing: about 120 minutes
